From ChEMBL document CHEMBL3272020, “Synthesis, antimalarial activity, and phototoxicity of some benzo(h)quinoline-4-methanols” (J Med Chem, 1976) come the findings set out here.

The test system of data set [1] is Plasmodium berghei. Kind of data set: Antimalarial activity against Plasmodium berghei infected in mouse assessed as change in mean survival time at 640 mg/kg, sc. It is filed as functional. The note with it: route subcutaneous.
Data set [2] has as its system Plasmodium berghei. Kind of data set: Antimalarial activity against Plasmodium berghei infected in mouse assessed as change in mean survival time at 320 mg/kg, sc. It is filed as functional. The note with it: route subcutaneous.
Data set [3] concerns Mus musculus. In words: Toxicity in mouse infected with Plasmodium berghei assessed as animal death at 640 mg/kg, sc. It is filed as organism-based. On the set-up: dose 640 mg/kg, route subcutaneous. Conditions: in vivo.
The subject of data set [4] is Plasmodium berghei. Kind of data set: Antimalarial activity against Plasmodium berghei infected in mouse assessed as change in mean survival time at 160 mg/kg, sc. The data set is classed as functional. The note with it: route subcutaneous.
Data set [5] concerns Mus musculus. Kind of data set: Phototoxicity in ip dosed mouse. The data set is classed as organism-based. The note with it: in vivo.
The subject of data set [6] is Plasmodium berghei. Kind of data set: Antimalarial activity against Plasmodium berghei infected in mouse assessed as disease cure by measuring host survival for 60 days at 640 mg/kg, sc. The data set is classed as functional, organism-based. The arrangement: dose 640 mg/kg.
The test system of data set [7] is Plasmodium berghei. Kind of data set: Antimalarial activity against Plasmodium berghei infected in mouse assessed as disease cure by measuring host survival for 60 days at 320 mg/kg, sc. The data set is classed as functional, organism-based. On the set-up: dose 320 mg/kg.
The test system of data set [8] is Mus musculus. In words: Toxicity in mouse infected with Plasmodium berghei assessed as animal death at 320 mg/kg, sc. It is filed as organism-based. The arrangement: dose 320 mg/kg, route subcutaneous. The note with it: in vivo.
For data set [9], the system named is Plasmodium berghei. Kind of data set: Antimalarial activity against Plasmodium berghei infected in mouse assessed as disease cure by measuring host survival for 60 days at 160 mg/kg, sc. It is filed as functional, organism-based. On the set-up: dose 160 mg/kg.

Activity calls are given as the source filed them. The rule behind the calls is not given here.

As for `CCCCN(CCCC)CC(O)c1c(C)cnc2c1ccc1cccc(Cl)c12.Cl` (stereo not given), the MST in data set [1] turned out to be 8.2 days; in data set [2], 6.2 days; in data set [4] it was 1.2 days. Besides, the Activity entry in data set [3] is given as “Non-toxic”. The MED in [5] is 200 mg/kg.

`CCCCN(CCCC)CC(O)c1c(C)cnc2c1cc(Cl)c1ccccc12.Cl` (stereo not given): in data set [6], the result was Active. In addition, the MST in data set [2] turned out to be 12.9 days; in [4], 6.9 days. Also, in data set [3], the Activity result is “Non-toxic”. This compound yielded an MED in data set [5] of 400 mg/kg.

Take `CCCCN(CCCC)CC(O)c1c(C)cnc2c1ccc1ccccc12.Cl` (stereo not given): the MST turned out to be 5.3 days in [1], 2.9 days in [2] and 0.9 days in data set [4]. In addition, the Activity entry in data set [3] is recorded as “Non-toxic”. Besides, the MED entry in [5] was “Not Active”.

On to `CCCCN(CCCC)CC(O)c1cc(C(C)(C)C)nc2c1ccc1ccccc12.O=C(O)C(=O)O` (stereo not given), for which the figures for the MST in [1] and in [2] were 10.2 days and 1.2 days, respectively. The Activity entry in data set [3] is reported as “Toxic”. In [5], the MED is 100 mg/kg.

As for `CCCCN(CCCC)CC(O)c1cc(-c2ccc(C)cc2C)nc2c1cc(Cl)c1ccccc12.Cl` (stereo not given), the result in [6] and in data set [7] was Active. In [3], the Activity entry is “Non-toxic”. In [4], the MST came out at 9 days.

Turning to `CCCCN(CCCC)CC(O)c1cc(C(C)(C)C)nc2c1cc(Cl)c1ccccc12.O=C(O)C(=O)O` (stereo not given), the outcome in [6] and in [7] was Active. The Activity result in [3] is on record as “Non-toxic”. Also, the MST in data set [4] came out at 2.2 days. Further, in data set [5], the MED was determined as 100 mg/kg.

Turning to `CCCCN(CCCC)CC(O)c1cc(C(C)(C)C)nc2c1cc(C)c1ccccc12.O=C(O)C(=O)O` (stereo not given), the MST came to 5.9 days in data set [1], 3.5 days in data set [2] and 2.7 days in [4]. Further, the Activity entry in data set [3] is “Non-toxic”. For the same compound, the MED in data set [5] turned out to be 300 mg/kg.

Take `C=C[C@H]1CN2CC[C@H]1C[C@H]2[C@H](O)c1cc(-c2ccccc2)nc2ccc(OC)cc12`: the result in [6] was Active. In addition, the Activity entry in [3] is “Non-toxic”. Also, the MST in [4] amounted to 5.8 days. In data set [5], this compound yielded an MED of 10 mg/kg.

As for `CCCCN(CCCC)CC(O)c1cc(-c2cc(OC)c(OC)c(OC)c2)nc2c1cc(Cl)c1ccccc12.Cl` (stereo not given), the Activity result in data set [8] is “Non-toxic”. The result in data set [7] and in data set [9] was Active. For the same compound, in data set [5], the MED is 80 mg/kg.

For `CCCCN(CCCC)CC(O)c1cc(-c2ccc(C)cc2C)nc2c1ccc1ccccc12.Cl` (stereo not given), the MST in data set [1] amounted to 5.6 days; in [2] it was 4.6 days; in [4], 4.2 days. The Activity result in data set [3] is “Non-toxic”. The compound also gave an MED in data set [5] of 300 mg/kg.

Regarding `C=C[C@H]1CN2CC[C@H]1C[C@H]2[C@H](O)c1ccnc2ccc(OC)cc12` [QUININE], the MST in [1] worked out at 4.8 days; in [4], 0.6 days. Moreover, in data set [3], the Activity entry is reported as “Non-toxic”. The MED result in data set [5] is listed as “Not Active”.
